According to the CheMixHub viscosity set:

Experiment: xn = mol fraction of the nth substance listed

CC(N)CN (stereo not given) + OCCCCO
viscosity [mPa·s], 101.33 kPa
Details | 293.15 K | 298.15 K | 303.15 K | 308.15 K | 313.15 K | 318.15 K
x2 = 0.0415 | 2.17 | 1.92 | 1.66 | 1.48 | 1.3 | 1.21
x2 = 0.0837 | 2.83 | 2.5 | 2.1 | 1.86 | 1.63 | 1.54
x2 = 0.1267 | 3.76 | 3.28 | 2.72 | 2.37 | 2.07 | 1.91
x2 = 0.1705 | 5.08 | 4.37 | 3.59 | 3.08 | 2.65 | 2.44
x2 = 0.2152 | 6.86 | 5.84 | 4.71 | 4.02 | 3.41 | 3.11
x2 = 0.2606 | 8.9 | 7.88 | 6.27 | 5.26 | 4.42 | –
x2 = 0.3069 | 13.32 | 10.91 | 8.54 | 7.05 | 5.85 | –
x2 = 0.3541 | 18.39 | 14.82 | 11.39 | 9.32 | 7.62 | –
x2 = 0.4022 | 25.44 | 20.09 | 15.23 | 12.31 | 9.87 | –
x2 = 0.4513 | 34.76 | 27.12 | 20.33 | 16.17 | 13.1 | –
x2 = 0.5013 | 47.13 | 36.26 | 26.83 | 21.01 | 16.42 | –
x2 = 0.5523 | 61.72 | 47.01 | 34.44 | 26.7 | 20.75 | –
x2 = 0.6043 | 75.89 | 57.65 | 42 | 32.37 | 25.02 | –
x2 = 0.6574 | 90.68 | 69.04 | 50.16 | 38.64 | 29.82 | –
x2 = 0.7116 | 99.83 | 76.3 | 55.75 | 42.89 | 33.12 | –
x2 = 0.7669 | 106 | 81.64 | 60.1 | 46.57 | 36.08 | –
x2 = 0.8233 | 107.2 | 83.62 | 61.98 | 48.39 | 37.8 | –
x2 = 0.881 | 104.3 | 82.14 | 61.43 | 48.46 | 38.15 | –
x2 = 0.9399 | 98.79 | 78.35 | 59.29 | 47.22 | 37.43 | –

CC(N)CN (stereo not given) + O
viscosity [mPa·s], 101 kPa
Details | 298.15 K | 303.15 K | 308.15 K | 313.15 K | 318.15 K | 323.15 K
x1 = 0.0997 | 6.527 | 5.479 | 4.625 | 3.878 | 3.237 | –
x1 = 0.0998 | – | 3.004 | 2.529 | 2.154 | 1.855 | 1.625
x1 = 0.1997 | – | 6.596 | 5.258 | 4.287 | 3.559 | 2.977
x1 = 0.2002 | 9.458 | 7.901 | 6.605 | 5.522 | 4.611 | –
x1 = 0.2522 | – | 7.702 | 6.095 | 4.913 | 4.041 | 3.365
x1 = 0.2992 | – | 8.043 | 6.383 | 5.139 | 4.211 | 3.495
x1 = 0.2998 | 10.24 | 8.542 | 7.121 | 5.956 | 4.993 | –
x1 = 0.3412 | – | 7.793 | 6.196 | 5.033 | 4.11 | 3.452
x1 = 0.3995 | 9.546 | 7.939 | 6.633 | 5.555 | 4.676 | –
x1 = 0.4012 | – | 7.095 | 5.678 | 4.69 | 3.823 | 3.204
x1 = 0.4957 | 8.037 | 6.649 | 5.591 | 4.69 | 3.961 | –
x1 = 0.5022 | – | 5.538 | 4.504 | 3.734 | 3.14 | 2.671
x1 = 0.6011 | – | 3.921 | 3.288 | 2.792 | 2.395 | 2.08
x1 = 0.6024 | 6.005 | 4.915 | 4.178 | 3.516 | 2.983 | –
x1 = 0.6913 | – | 2.844 | 2.443 | 2.113 | 1.85 | 1.632
x1 = 0.694 | 4.35 | 3.566 | 3.067 | 2.603 | 2.23 | –
x1 = 0.7912 | – | 2.119 | 1.854 | 1.634 | 1.45 | 1.302
x1 = 0.7949 | 2.882 | 2.425 | 2.098 | 1.814 | 1.585 | –
x1 = 0.8901 | 1.975 | 1.752 | 1.508 | 1.337 | 1.199 | –
x1 = 0.8998 | – | 1.689 | 1.501 | 1.312 | 1.216 | 1.101
